According to patent US20210113602A1, “USE OF 6-THIO-2'-DEOXYGUANOSINE (6-THIO-dG) TO TREAT MELANOMA” (The Board of Regents of the University of Texas System, priority 2018, published 2021):

How the values were obtained:
[1] = in mice; cited from earlier work
[2] = test system: NRAS mutant melanoma cells; experiment: Relative cell number, Crystal Violet assay; assay type: cell-based, human; details: 6, 12 or 18 days; relative to DMSO
Procedure: Supplementary FIGS. 8a-d. NRAS mutant melanoma cells are sensitive to the telomere uncapping agent 6-thio-dG. NRAS^mut melanoma cells were treated with 6-thio-dG for 6, 12 or 18 days. (Supplementary FIG. 8a) Relative cell number was assessed by […] Violet assay and calculated relative to DMSO-treated cells. Data represent average of three independent experiments +/-SD. (Supplementary FIG. 8b) Representative pictures of cells treated with 6-thio-dG for the indicated days and stained with Crystal Violet. (Supplementary FIG. 8c) NRAS^mut cells were treated with 6-thio-dG for 7 days and telomere-induced foci (TIF) were determined by indirect immunofluorescence combined with fluorescence in situ hybridization (FISH). Cells were considered TIF-positive when for or more co-localizing foci of telomeres and γ-H2AX were found. (Supplementary FIG. 8d) Quantification of TIF assay. Cells were scored as TIF-positive when four or more γ-H2AX foci (green) were co-localizing with telomere foci (red). Data represent average of […]. P values were calculated by unpaired Student's t-test.

[3] = test system: NRAS mutant melanoma cells; experiment: Telomere dysfunction-induced foci (TIF) assay; assay type: cell-based, human; details: 6-thio-dG for 7 days
Procedure: Supplementary FIGS. 6a-b. […] NRAS mutant melanoma cells WM3000 were transduced with TERT shRNA and treated with NAC […] for 7 days. (Supplementary FIG. 6a) TIFs were assessed by indirect immunofluorescence combined with fluorescence in situ hybridization (FISH). Representative images are shown (scale bar=10 μm). (Supplementary FIG. 6b) Quantification of TIF positive cells. Cells were scored as TIF positive when three or more y-H2AS foci (green) were co-localizing with telomere foci (red). Data represent average of thirteen fields imaged +/−SD.
Supplementary FIGS. 8a-d. NRAS mutant melanoma cells are sensitive to the telomere uncapping agent 6-thio-dG. NRAS^mut melanoma cells were treated with 6-thio-dG for 6, 12 or 18 days. (Supplementary FIG. 8a) Relative cell number was assessed by Cyrstal Violet assay and calculated relative to DMSO-treated cells. […] (Supplementary FIG. 8c) NRAS^mut cells were treated with 6-thio-dG for 7 days and telomere-induced foci (TIF) were determined by indirect immunofluorescence combined with fluorescence in situ hybridization (FISH). […] (Supplementary FIG. 8d) Quantification of TIF assay. Cells were scored as TIF-positive when four or more γ-H2AX foci (green) were co-localizing with telomere foci (red). […] P values were calculated by unpaired Student's t-test.
DNA damage and telomere dysfunction assay (TIF). […] Mean fluorescence staining was quantified by flow cytometry. […]

[4] = test system: NRAS-WT/BRAF-WT melanoma cells; experiment: Cell death, Annexin V/PI; assay type: cell-based, human; details: single agents or combination; 1 μM 6-thio-dG, 5 μM Gam
[5] = test system: detoxifying enzymes such as SOD2, GPX1 and UCP2; experiment: mRNA levels of detoxifying enzymes by qRT-PCR; assay type: cell-based, human; details: 1 μM 6-thio-dG for 7 days
Procedure: FIGS. 3a-g. Telomere dysfunction enhances oxidative stress leading to upregulation of an antioxidant program. (FIGS. 3a-d) NRASmut melanoma cells were transduced with TERT shRNA (FIG. 3a, FIG. 3c) or treated with 1 μM 6-thio-dG for 7 days (FIG. 3b, FIG. 3d). mRNA levels of the indicated genes were quantified by qRT-PCR (FIG. 3a, FIG. 3b). Mitochondrial superoxide production was measured by MitoSox Red fluorescence (FIG. 3c, FIG. 3d) and expressed as fluorescence relative to vector or DMSO controls. (FIG. 3e) NRASmut melanoma cells were treated with 1 μM of 6-thio-dG for the indicated times and SOD2 protein levels measured by Western blotting. (FIG. 3f) SOD2 was silenced using shRNA. Transduced M93-047 cells were treated with DMSO or 1 μM of 6-thio-dG and cell death was assessed by Annexin V/PI straining. (FIG. 3g) M93-047 cells were transduced with a SOD2 lentiviral construct or empty vector control (pLX304). Transduced cells were treated with increasing doses (1, 2.5 and 5 μM) of 6-thio-dG for 7 days and cell death was assessed. Data represent average from three independent experiments±SEM. *p<0.05; **p<0.01; ***p<0.005 in unpaired Student's t-test.

KRAS mutant A549 cells = experiment: Cell death, Annexin V/PI; assay type: cell-based, human; details: 1 μM 6-thio-dG, 5 μM Gam
KRAS mutant HCT116 cells = experiment: Cell death, Annexin V/PI; assay type: cell-based, human; details: 1 μM 6-thio-dG, 5 μM Gam

Question: Which “alanine aminotransferase (ALT)” value [1] does the source give for `Nc1nc2c(ncn2[C@H]2C[C@H](O)[C@@H](CO)O2)c(=S)[nH]1` [6-thio-dG, 6-thio-2′-deoxy-guanosine] here?
Answer: no significant effects

Question: What about the “aspartate aminotransferase (AST)” value [1] of the same compound?
Answer: no significant effects

Question: And the creatinine levels [1]?
Answer: no significant effects

Question: And the red blood cells [1]?
Answer: no significant effects

Question: And the white blood cells [1]?
Answer: no significant effects

Question: And the “relative cell number (sensitivity)” value [2]?
Answer: sensitive

Question: And the TIFs [3]?
Answer: increased levels

Question: And the cell death [4]?
Answer: did not induce cell death

Question: What about the GPX1 expression [5] of the same compound?
Answer: upregulation

Question: And the SOD2 expression [5]?
Answer: upregulation

Question: What about the UCP2 expression [5] of the same compound?
Answer: upregulation

Question: And the cell death (KRAS mutant A549 cells)?
Answer: did not induce substantial death

Question: And the cell death (KRAS mutant HCT116 cells)?
Answer: did not induce substantial death
